One data set relates to MEG-01. The data set can be described thus: XTT cell viability assay, MEG-01. The settings on record: read-out: Viability IC50, MEG-01, chronic myeloid leukemia, BRC:ABL, 72 hours. It is filed as cell-based. On the procedure:
(§1) Cell viability assays. For viability assays, four EWS:Fli1 fusion tumor cell lines (RD-ES, SK-ES-1, A673, and TC-71), one human embryonic kidney cell line (293.T), one ES tumor cell line with ERG fusion (CHLA-25), one fetal kidney cell line (HEK293.T), one hepatoblastoma cell line (HepG2), one chronic myeloid leukemia (MEG-01), and one acute monocytic leukemia (THP-1) cell line were plated at 5000 cells/well in 100 μL growth media in 96-well plates. After overnight incubation, 50 μL of growth media containing mithramycin A (MithA) (Cayman Chemical, Ann Arbor, Mi. Item Number 11434) or boronic acid-conjugated nano-MithA (MANP) (0.12 nM to 500 nM, final) or dimethyl sulfoxide (DMSO, 0.01% v/v) vehicle was added to the wells, and cell viability assays were performed 72 hours later. The cells were incubated with the activated-XTT solution (mixture of 2% final concentration of activation reagent with the XTT reagent) from ATCC (Catalog Number 30-1011K, XTT Cell Proliferation Assay Kit) for 3 hours prior to recording absorbance. The cell viability was determined by measuring the absorbance wavelength at 475 nm and reference wavelength at 650 nm on an Infinite M200 plate reader (Tecan Group, Ltd. Mannedorf, Switzerland). […]

The next data set concerns CHLA-25. The data set can be described thus: XTT cell viability assay, CHLA-25. The conditions noted are these: 72 h, read-out: Viability IC50. It is filed as cell-based. On the procedure: as §1
The test system of the next data set is EWS:Fli1+ cells. The data set can be described thus: XTT cell viability assay, average over EWS:Fli1+ cell lines. It is filed as cell-based. The conditions noted are these: read-out: average IC50 against EWS:Fli1+ cells. On the procedure:
as §1

Another data set concerns NR0B1. The data set can be described thus: Western blotting, NR0B1 protein expression. It is filed as cell-based. The settings on record: 10 nM, 24 hours; compared with saline control, p<0.0471. On the procedure:
Western Blotting. Expression Western blotting was performed to assess the expression of NR0B1 (EWS:Fli1 target gene) and Rad 51 (DNA homologous recombination repair HRR) at protein level as provisory described in Lin et al 2021. Briefly, cells were grown to ˜70% confluence and exposed to 10 nM of MithA/MANP (final concentration) or DMSO, (0.01% v/v) vehicle and blank polymer for 24 hours. Lysates were collected in cold RIPA lysis buffer supplemented with 1×HALT protease/phosphatase inhibitor cocktail (Thermo Scientific) and clarified by centrifugation. Protein concentration of the supernatant was determined by BCA assay (Thermo Scientific), and then diluted in 4× loading buffer (Licor Inc., Lincoln, Nebr.) containing 1× NuPAGE reducing agent (Life Technologies). Prior to electrophoresis, samples were denatured by incubating at 70° C. for 10 minutes. Samples were then resolved (25 μg/lane) on 4-20% gradient SDS-PAGE gels and transferred to low-fluorescence PVDF membranes (Bio-Rad Inc., Hercules Calif.). Transfer efficiency and equivalence of total protein load was assessed using Revert 700 Total Protein Stain kits (Licor Inc). Membranes were then washed, blocked in Odyssey Blocking Buffer (PBS) (Licor Inc), and incubated with primary antibodies (Table S4.3 above) overnight at 4° C. diluted in blocking buffer.

The conditions of data set [1]: human, in vivo; cited from earlier work.
The next data set has as its system Female C57BL/6J mice. The data set can be described thus: In vivo toxicity: serum chemistry. The protocol:
In vivo toxicity of MithA and MANP. Cohorts of n=6-7 C57BL/6J females, 8-10 wko were randomized to receive either intravenous or intraperitoneal administration of saline control vehicle, blank polymer, MithA, or MANP as described in TABLES 2A and 2B. Body weight loss exceeding 20%, death, morbidity, changes in behavior, and any other sign of local or systemic toxicity were recorded.
For serum chemistry blood was collected through a 20G needle 24 h after the last dose, by cardiac puncture under isoflurane anesthesia. The blood was distributed to EDTA-coated (100 uL) or clot-activator (>200 uL) Multivette-600 tubes (Sarstedt, Newton, N.C.) respectively for hematology and serum chemistry analyses. For serum isolation, blood allowed to clot at room temperature for at least 20 minutes, centrifuged 10 kG for 10 minutes, aliquoted and frozen at −80° C. until analysis on a VetScan VS2 instrument (Zoetis, Parsippany-Troy Hills, N.J.) with Zoetis Preventive Profile Plus panel for chemistry.

The subject of another data set is SK-ES-1. The data set can be described thus: XTT cell viability assay, SK-ES-1. It is filed as cell-based. The settings on record: Homo sapiens, SK-ES1, 72 h, read-out: Viability IC50. On the procedure:
as §1

The conditions of data set [2]: cited from earlier work.
The test system of a further data set is HepG2. Kind of data set: XTT cell viability assay, HepG2. It is filed as cell-based, human. The protocol:
as §1

[3] abbreviates: 5x2 mg/kg i.v., compared to saline vehicle.
[4] abbreviates: 5x4 mg/kg i.p., relative to saline vehicle.

The structures appear in SMILES notation. Values joined by “and” are separate entries in the source; they are usually repeats but may differ in a detail not shown here. Equal entries are not always repeated. Where two headings read alike, the source gives them in different places.

As to `CO[C@H](C(=O)[C@@H](O)[C@@H](C)O)[C@@H]1Cc2cc3cc(O[C@H]4C[C@@H](O[C@H]5C[C@@H](O)[C@H](O)[C@@H](C)O5)[C@H](O)[C@@H](C)O4)c(C)c(O)c3c(O)c2C(=O)[C@H]1O[C@H]1C[C@@H](O[C@H]2C[C@@H](O[C@H]3C[C@](C)(O)[C@H](O)[C@@H](C)O3)[C@@H](O)[C@@H](C)O2)[C@H](O)[C@@H](C)O1` [MithA, (2S,3S)-2-[(2S,4R,5R,6R)-4-[(2S,4R,5S,6R)-4-[(2S,4S,5R,6R)-4,5-dihydroxy-4,6-dimethyloxan-2-yl]oxy-5-hydroxy-6-methyloxan-2-yl]oxy-5-hydroxy-6-methyloxan-2-yl]oxy-3-[(1 S,3S,4R)-3,4-dihydroxy-1-methoxy-2-oxopentyl]-6-[(2S,4R,5R,6R)-4-[(2S,4R,5S,6R)-4,5-dihydroxy-6-methyloxan-2-yl]oxy-5-hydroxy-6-methyloxan-2-yl]oxy-8,9-dihydroxy-7-methyl-3,4-dihydro-2H-anthracen-1-one], the half-inhibitory concentration (IC50) in the data set on MEG-01 came out at 37.8 nM. Further, the IC50 in the data set on CHLA-25 is 349 nM. Further, the IC50 with EWS:Fli1+ cells came out at 10 nM. In the data set on NR0B1, the NR0B1 protein expression entry is recorded as “significantly suppressed”. In [1], the “ALT and AST elevations, increase in geometric mean” value is recorded as “greater than 13 fold”; the “treated patients who developed hepatotoxicity” value is on record as 10/12. In addition, in the data set on Female C57BL/6J mice (5 consecutive days i.p. 1 mg/kg, vs saline (p=0.005)), the glucose level entry is given as “decreased”. Besides, the liver toxicity result in the data set with Female C57BL/6J mice (5x2 mg/kg (eq.) i.v. alternating days) is recorded as “led to hepatoxicity”. Moreover, in the data set with Female C57BL/6J mice (setting [3]), the “decrease in glucose serum level” value was 1.9 fold, the “increase in ALT” value amounted to 20.9 fold, the “increase in AST” value is on record as 4.1 fold and the “increase in total bilirubin” value is 1.5 fold. In the data set on Female C57BL/6J mice (setting [4]), the “decrease in glucose level” value is reported as 1.9 fold, the “increase of alanine transaminase (ALT)” value is recorded as 16.9 fold and the “increase of aspartate aminotransferase (AST)” value amounted to 5.4 fold. Moreover, the “kidney injury or electrolyte imbalance” value in the data set with Female C57BL/6J mice (five i.v. injections on alternating days, any treatment group) is listed as “no evidence of kidney injury or electrolyte imbalance”. In addition, the “changes in serum chemistry” value with Female C57BL/6J mice (single i.p. 4 mg/kg) is reported as “no significant changes”. In the data set on Female C57BL/6J mice (single i.v. 4 mg/kg, in comparison to equivalent dose of MANP (p=0.0381)), the “increase in ALT liver enzyme level” value is listed as 1.7 fold. Also, the IC50 with SK-ES-1 was determined as 11.9 nM. The “patients with reversible grade 4 ALT/AST elevation” value in [2] (dose escalation, single-agent therapy) is 2/8 and 2 out of 8. For the same molecule, in [2] (level hypothesized to inhibit EWS:Fli1 activity, not reached before adverse effects), the serum level reached is less than 50 nM. For the same molecule, the 50% inhibitory concentration (IC50) in the data set on HepG2 (Homo sapiens, HepG2, 72 h, read-out: Viability IC50, HepG2, hepatoblastoma) amounted to 24.9 nM. Moreover, the IC50 in the data set with HepG2 (read-out: Viability IC50, HepG2, hepatoblastoma, 72 hours) was 24.9 nM.

The values above are taken from patent US20230233695A1, “MITHRAMYCIN A NANOPARTICLES FOR CANCER TREATMENT” (priority 2021, published 2023).
